Several values for one entry are separate records, joined by “and”; a condition that tells them apart may be missing. Equal values may be shown once. Where a name gives a salt, the structure may show the parent alone.
System: peritoneal neutrophils
Assay: In vitro neutrophil chemotaxis toward zymosan-activated rat serum (Example 24)
Type: cell-based, mouse
Conditions: for Percent Inhibition of chemotaxis: tripotassium salt
Protocol: In vitro neutrophil chemotaxis studies were carried out by standard methods, as follows:
Mice were injected with complete Freund's adjuvant (CFA) and peritoneal cells, principally neutrophjls (>90 percent), were reproved from the mice 24 hours thereafter. Blind-well chemotactic chambers (Nucleopore Corp., Pleasanton, Calif.) were utilized.
Medium (RPMI 1640 plus 10 percent fetal calf serum) or medium plus 20 percent zymosan-activated rat serum (ZAS) was added to the lower compartment of each chamber. A nucleopore filter (8 μm pore size) was placed between compartments and 1×10^5 peritoneal neutrophils (above) suspended in medium were placed in the upper compartment. Chambers were incubated for six hours, after which time the filters were removed and stained with Giemsa stain. The number of cells on the lower surface of the filter was counted under a microscope. Treatment groups were assayed in duplicate.
The studies were carried out more specifically as follows:
Zymosan (Sigma Chemical Co., St. Louis, Mo.) was mixed with rat serum for one hour at 37° C. at 1 milligram (mg)/ml. The resulting chemoattractant composition was filtered, aliquotted and stored frozen at -70° C. prior to use.
The above chemoattractant composition was used as a 20 percent v/v solution in medium.
The chemotaxis chambers were arranged as follows:
The chambers were incubated at 37° C. for six hours, after which the chambers were dismantled, and the filters removed and treated as follows:
a) The filters were immersed in Giemsa stain diluted 1:50 for 30-45 minutes.
b) The stained filters were rinsed gently in distilled water for 3-5 minutes.
c) The stained, rinsed filters were air dried without blotting.
Several compounds described herein and control compounds ("drug", above) were examined at various concentrations, in duplicate. The molar concentration of a drug that inhibited the observed chemotaxis by 50 percent, defined as the ID50 value, was determined as shown below.

With `CC1(C)O[C@H]2O[C@H]([C@@H](COS(=O)(=O)O)OS(=O)(=O)O)[C@H](OS(=O)(=O)O)[C@H]2O1` [Compound III, 1,2-O-(2-Propylidene)-3,5,6-tri-O-sulfo-α-D-glucofuranose, tripotassium salt] the “times as potent as ibuprofen and prednisone in chemotaxis inhibition” value was 100-1000 times, the IC50 (Mus musculus, Neutrophil, 6 h, 20 percent zymosan-activated rat serum, six hours, 37° C., read-out: ID50 (molar concentration that inhibited chemotaxis by 50 percent)) was 0.2 µM and the inhibition at 0.01 µg/mL (Mus musculus, Neutrophil, dose 0.01 μg/ml, read-out: Percent Inhibition of chemotaxis) was 1.5%. For the same molecule, the inhibition at 100 µg/mL (Mus musculus, Neutrophil, dose 100.0 μg/ml, read-out: Percent Inhibition of chemotaxis) was 68%, the inhibition at 200 µg/mL (Mus musculus, Neutrophil, dose 200.0 μg/ml, read-out: Percent Inhibition of chemotaxis) was 60% and the “Percent Inhibition of chemotaxis” value (dose 1.0 μg/ml) was 69.0% and 65.0% and 90.0% and 88.5% and 77.0% and 63.5% and 70.0%. For the same molecule, the “Percent Inhibition of chemotaxis” value (dose 10.0 μg/ml) was 87.0% and 76.0% and 92.5% and 97.5% and 74.5%, the “Percent Inhibition of chemotaxis” value (dose 100.0 μg/ml) was 80.5% and the “relative activity in inhibiting neutrophil chemotaxis, in words” value (in vitro) was “more active than any of the other assayed compounds”.

Reference: US5358936A, “Anionic furanose derivatives, methods of making and using the same” (Gordon; Paul, priority 1991, dated 1994)
